Experimental data taken from ChEMBL document CHEMBL1134709 (Bioorg Med Chem Lett, 2001).

biological target: T1, Protein Tat (Human immunodeficiency virus type 1 group M subtype B (isolate PCV12)(HIV-1), UniProt P04326); assay: Inhibition of Tat peptide binding to HIV-1 TAR RNA; set-up: species or system Human immunodeficiency virus type 1 (CLONE 12)
T1 sequence (P04326 whole entry): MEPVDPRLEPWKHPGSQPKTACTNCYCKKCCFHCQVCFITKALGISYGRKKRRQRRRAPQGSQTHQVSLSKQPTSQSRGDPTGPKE

Compared with `N=C(N)NCCCC(N)C(=O)NCC1O[C@@H](OC2C(N)C[C@@H](N)[C@@H](O)[C@H]2O)[C@@H](N)[C@@H](O)C1O` (some centres undefined), `NC[C@H]1OC(O[C@H]2[C@H](O)C(O)[C@H](N)C[C@@H]2N)C(N)[C@@H](O)[C@@H]1O` (single isomer, unassigned) [NEAMINE] is 47-fold higher in IC50: 0.6 µM for the first, 28 µM for the second.

Going from `NC1C[C@@H](N)[C@@H](O)[C@@H](O)C1O[C@@H]1OC(CNC(=O)c2ccc3ccc4cccc5ccc2c3c45)C(O)[C@H](O)[C@@H]1N` (some centres undefined) to `N=C(N)NCCCC(NC(=O)c1ccc2ccc3cccc4ccc1c2c34)C(=O)NCC1OC(OC2C(N)CC(N)C(O)C2O)C(N)C(O)C1O` (centres undefined), the IC50 falls from 1.7 µM to 0.028 µM (61-fold).
